From the OPERA property sets (Mansouri et al. 2018)

Compound | logP
COc1cc(OC)c(OC)cc1CC(C)N (stereo unspecified) | 1.74
COc1cc(Cc2cnc(N)nc2N)cc(OC)c1OCc1ccccc1 | 2.46
Cc1ccccc1NC(=O)CN1CCCCC1 | 2.26
C=CCOCC(O)Cn1ccnc1[N+](=O)[O-] (stereo unspecified) | 0.4
O=[N+]([O-])c1cc(Cl)c(N=C2NCCN2)c(Cl)c1 | 2.1
O=C1CCC(=O)N1c1cccc(Cl)c1 | 0.98
COc1c(OCc2ccccc2)cc(Cc2cnc(N)nc2N)cc1OCc1ccccc1 | 3.89
O=[N+]([O-])c1nccn1CC(O)CO (stereo unspecified) | -0.96
NC(=O)N(CCCN(N=O)C(N)=O)N=O | -0.3
CC1(C)SC2C(NC(=O)C(NS(C)(=O)=O)c3ccccc3)C(=O)N2C1C(=O)O (stereo unspecified) | 0.95
CC(=O)Nc1ccc(O)c(C)c1 | 0.79
COCC(O)Cn1c([N+](=O)[O-])cnc1C (stereo unspecified) | 0.04
CCCCC1OC(=O)c2cc(Cl)ccc21 (stereo unspecified) | 3.53
Cc1nnc(SCc2ccccc2)[nH]1 | 1.68
C=CC(CC)OC(N)=O (stereo unspecified) | 1.09
COc1ccc(OC(=O)CNC(=O)c2ccccc2)cc1 | 2.28
O=[N+]([O-])c1cnc(N=C2NCCN2)s1 | 1.38
FC(F)(F)c1nc2cc(Br)c(Br)cc2[nH]1 | 4.15
O=C(CNC(=O)c1ccccc1)Oc1ccc(F)cc1 | 2.46
COc1cc(C)nn1-c1nc(C)cc(C)n1 | 0.73
Clc1nc2c(Cl)c(Cl)c(Cl)c(Cl)c2[nH]1 | 4.53
NNC(=O)c1cccc(N)c1 | -0.86
COc1ccc2c(c1)C(c1ccccc1)=NCC(=O)N2 | 2.24
O=[N+]([O-])c1nccn1C1OC(CO)C(O)C(O)C1O (stereo unspecified) | -1.4
CCCCNP(=O)(OC)Oc1cc(Cl)c(Cl)cc1Cl (stereo unspecified) | 4.18

Compound | logP
NC(=O)c1cccc(OC(=O)CNC(=O)c2ccccc2)c1 | 1.2
FC(F)(F)c1nc2c(Br)c(Br)c(Br)cc2[nH]1 | 4.08
COc1cc(Cc2cnc(N)nc2N)cc(OC)c1C(C)C | 3.37
Nc1cccc(OC(=O)CNC(=O)c2ccccc2)c1 | 1.3
CN(C)S(=O)(=O)c1ccccc1 | 1.35
CC(C)CN(CC(C)C)C(=O)C=Cc1ccc2c(c1)OCO2 | 4.37
CCCCCCc1nnc(SC)n(N)c1=O | 2.68
CN(C)/N=N/c1cc(C(N)=O)cc(C(N)=O)c1 | 0.22
CSc1nnc(C(C)C)c(=O)n1N | 1.01
Cc1ccccc1C(=N)c1ccccc1C | 3.31
CCN(CC)CCNC(=O)c1cc(Br)ccc1OC | 3.2
CCCCCCCCCC[n+]1cc(C)cc(C)c1.[I-] | 0.76
CN1C(=O)CN=C(c2ccccc2F)c2cc(N)ccc21 | 1.3
Clc1cccc(-c2ccccc2)c1Cl | 5.02
COc1cccc(/C=C/[N+](=O)[O-])c1 | 2.37
COc1ccc(N(C)C(C)=O)cc1 | 0.72
Cc1ccccc1N1C(=O)CCC1=O | 0.29
O=S1(=O)NC(c2ccco2)=Nc2ccccc21 | 1.06
O=NN1CCCN(N=O)CC1 | -0.51
COc1cc(Cc2cnc(N)nc2N)cc(OC)c1C(=O)OC(C)C | 1.72
CCC(=O)c1ccc(OC(=O)NC)cc1 | 1.55
CCCCCCCC1(CC)C(=O)NC(=O)NC1=O | 2.91
CCC(=O)N(C)c1ccc(S(=O)(=O)N(C)C)cc1 | 0.71
CNP(=O)(OC)SC (stereo unspecified) | -0.07
Nc1nc(N)nc(-c2cc(Cl)ccc2F)n1 | 1.81

Compound | logP
C#CCOn1c(=O)[nH]c(C)c(Br)c1=O | -0.1
COc1c(N(C)C)cc(Cc2cnc(N)nc2N)cc1N(C)C(C)=O | 1.01
O=C(NC(CO)C(O)c1ccc(Cl)cc1)C(Cl)Cl (stereo unspecified) | 1.64
CC(=O)Cn1ccnc1[N+](=O)[O-] | -0.34
CSC(C)=NOC(=O)N(C)SN(C)C(=O)C1CC1 | 1.7
CCN(CC)CC(=O)NC1c2ccccc2-c2ccccc21 | 3.64
CN(C)C(=O)CCC(=O)OCC(=O)C1(O)CCC2C3CCC4=CC(=O)CCC4(C)C3C(O)CC21C (stereo unspecified) | 2.03
CCC(C)n1nnc2ccccc21 (stereo unspecified) | 2.31
CS(=O)(=O)CCCOc1ccc([N+](=O)[O-])cc1 | 0.93
Cc1ncc([N+](=O)[O-])n1CC(O)CCl (stereo unspecified) | 0.6
CN(C)CCc1cccs1 | 1.99
CS(=O)(=O)c1cccc(CC(=O)O)c1 | 0.06
Nc1nc(N)nc(-c2cc(Br)ccc2Cl)n1 | 2.04
O=S1(=O)NC(C2CCC2)=Nc2ccc(Cl)cc21 | 2.24
CCCC(=O)N(C)SN(C)C(=O)Oc1cccc2c1OC(C)(C)C2 | 3.8
Cc1ccc(NC(=O)c2ccco2)c(O)c1 | 2.84
CC(C)c1cccc(OC2OC(CO)C(O)C(O)C2O)c1 (stereo unspecified) | 0.65
CC1CNC(=Nc2ncc([N+](=O)[O-])s2)N1 (stereo unspecified) | 1.82
CC1=Nc2cc([N+](=O)[O-])c(Cl)cc2S(=O)(=O)N1 | 1.42
CC(=O)C(C#N)=NNc1cccc(Cl)c1 | 3.9
COc1cc(Cc2cnc(N)nc2N)cc(Cl)c1OC | 1.92
Nc1nc(N)nc(-c2cccc(Cl)c2)n1 | 2.33
CCC(=O)OCC(=O)[C@@]1(O)[C@@H](C)C[C@H]2[C@@H]3CCC4=CC(=O)C=C[C@]4(C)[C@@]3(F)[C@@H](O)C[C@@]21C | 3.06
COc1cc(C)c(Cc2cnc(N)nc2N)cc1OC | 1.23
COc1ccc2c(c1)N=C(C)NS2(=O)=O | 0.56

Compound | logP
CS(=O)(=O)c1ccc(NS(=O)(=O)C(F)(F)F)cc1 | 1.99
FC(F)OC(F)(F)C(F)Cl (stereo unspecified) | 2.1
Nc1ccc2c(c1)C(c1ccccc1)=NCC(=O)N2 | 1
CN(C)c1cnnc(N(C)C)c1 | 0.84
CN(C)C(=O)Oc1ccc(Cl)cc1 | 2.27
COC(=O)C1CCCC(NC(=O)N(CCCl)N=O)C1 (stereo unspecified) | 1.89
COC(=O)C(C#N)=NNc1cc(Cl)c(Cl)c(Cl)c1 | 5.22
CC(C)C(=O)N(C)SN(C)C(=O)Oc1cccc2c1OC(C)(C)C2 | 3.6
CCOc1ccc2nc(S(=O)(=O)NC)sc2c1 | 2.59
CSc1nnc(CCC(C)C)c(=O)n1N | 1.85
Clc1ccc(C2NCCS2)cc1 (stereo unspecified) | 2.1
CC(=O)CNc1ccccc1C(N)=O | 0.61
COC(=O)c1c(OC)cc(Cc2cnc(N)nc2N)cc1OC | 0.95
O=S1(=O)N=CNc2ccc(Cl)cc21 | 1.07
Cc1ccccc1NC(=O)C1CNCCN1 (stereo unspecified) | 0.26
CCCCCCCCCCCC[n+]1ccc(C)cc1C.[I-] | 1.41
COC1OCC(O)C(NC(=O)N(C)N=O)C1O (stereo unspecified) | -1.08
O=NN(CCF)C(=O)NC1CCC(NC(=O)N(CCF)N=O)CC1 (stereo unspecified) | 1.34
CN(Cc1ccc(C#N)cc1)N=Nc1ccc(C(=O)O)cc1 | 3.6
CCSC(=O)Oc1cccc2cccnc12 | 2.74
CC(C)n1nnc2ccccc21 | 1.98
O=C(O)COc1cc(F)cc(I)c1 | 2.42
CC(=O)N=C1SC(=Cc2ccc([N+](=O)[O-])o2)C(=O)N1C | 1.21
CCCCCn1nnc2ccccc21 | 3.22
O=C1CC2OCCC3CN4CCC56c7ccccc7N1C5C2C3CC46 (stereo unspecified) | 1.62

Compound | logP
CC(=O)Oc1ccc(N=C2C=CC(=O)C=C2)cc1 | 1.43
CCCCCCN(SN(C)C(=O)ON=C(C)SC)C(=O)N(C)C | 3.3
CS(=O)(=O)CCn1ccnc1[N+](=O)[O-] | -1.3
CS(=O)(=O)Nc1cccc(NS(C)(=O)=O)c1 | 0.07
CN(C)/N=N/c1[nH]ncc1C(N)=O | -0.12
OCC1OC(Oc2cccc(C(F)(F)F)c2)C(O)C(O)C1O (stereo unspecified) | 0.49
CC(=O)Nc1cccc(OC(=O)CNC(=O)c2ccccc2)c1 | 1.7
CNC(=O)Oc1ccccc1SC | 1.51
O=NN(CCCl)C(=O)NC1CCC(O)CC1 (stereo unspecified) | 1.11
O=C1CCC(=O)N1c1cccc(Br)c1 | 1.09
C=C(Br)CC1(C(C)CC)C(=O)NC(=O)N(C)C1=O (stereo unspecified) | 2.43
CC(=O)c1ccccc1OC(=O)N(C)C | 0.93
CNc1cc(Cc2cnc(N)nc2N)cc(N(C)C)c1OC | 1.56
FC(F)(F)COC1C(Cl)C(Cl)C(Cl)C(Cl)C1Cl (stereo unspecified) | 4.15
CC(=O)NNC(=O)c1ccccn1 | -0.57
COc1nc(C)cc(-n2[nH]c(C)cc2=O)n1 | 1.03
CCc1cccc(OC2OC(CO)C(O)C(O)C2O)c1 (stereo unspecified) | 0.31
CCOC(=O)N(C)SN(C)C(=O)Oc1cccc2c1OC(C)(C)C2 | 3.5
O=[N+]([O-])c1ccc(/C=C/c2nnc[nH]2)o1 | 1.1
CSC1=NC(=O)C(=Cc2ccc([N+](=O)[O-])o2)S1 | 1.41
CNC1=NC(=O)C(=CC=Cc2ccc([N+](=O)[O-])o2)S1 | 1.35
Nc1cnccn1 | -0.07
C[N+](C)(C)Cc1ccncc1.[Br-] | -3.95
Cc1ccc(Cl)c(Cl)c1NC1=NCCN1 | 2.35
Cc1c(N(C)C)cc(Cc2cnc(N)nc2N)cc1N(C)C | 2.06

Compound | logP
Cc1cccc(C)c1C(=N)c1ccccc1 | 3.53
CN(N=O)C(=O)N(C)c1ccccc1 | 1.58
O=C1CN=C(c2ccccc2F)c2cc(Cl)c(Cl)cc2N1 | 3.63
O=C(O)C1c2ccccc2Cc2ccccc21 | 2.78
O=[N+]([O-])c1cc[n+]([O-])c2c([N+](=O)[O-])cccc12 | 0.76
CC(C)=CC1C(C(=O)OCc2ccc(C#N)cc2)C1(C)C (stereo unspecified) | 4.91
ClC1=C(Cl)C(Cl)C(Cl)C(Cl)C1Cl (stereo unspecified) | 4.31
CC12CC3(C)CC(C)(C1)CC(N)(C2)C3 | 4.01
CN(C)CCCC(c1ccccc1)c1ccc(C(C)(C)C)cc1 (stereo unspecified) | 5.72
CN1C(=O)CN=C(c2ccccc2)c2cc(N)ccc21 | 1.46
O=c1[nH]nc(CSc2ccccc2)[nH]1 | 1.46
COc1cc(C)n(-c2nc(C)cc(C)n2)n1 | 1.82
COc1cc(Cc2cnc(N)nc2N)cc(OC)c1C(C)=O | 1.1
Cc1cnc(Cc2ccc(O)cc2)s1 | 2.62
CCCCCC(=O)N[C@@H]1C(=O)N2[C@@H]1SC(C)(C)[C@@H]2C(=O)O | 2.37
CN(C)C(=O)Cc1ccsc1 | 0.65
CCC(=O)CC(=O)CC | 1.12
C=CCOn1c(=O)[nH]c(C)c(Br)c1=O | 0.32
CC(=O)C(C#N)=NNc1cc(Cl)cc(Cl)c1 | 4.68
CCN(CC)CCNC(=O)c1cc(Cl)cc(Cl)c1 | 3.77
CC(C)(C)c1ccc(OC2OC(CO)C(O)C(O)C2O)cc1 (stereo unspecified) | 1.18
